Paper PMC5290737, “Surface mediated cooperative interactions of drugs enhance mechanical forces for antibiotic action” (Scientific Reports, 2017)
Converted amounts (≈) assume the structure as drawn. “And” between values parts separate entries of the source, which are not always exact repeats. Identical values can stand only once. Like-named read-outs stand apart in the source and are kept apart here.

Columns and labels:
[1] = tested on: vancomycin-susceptible receptor (VSR); assay: Cantilever surface stress assay, antibiotic binding to surface-bound VSR; conditions: for mechanical response (in words): 3 μM drug against VSR; for Kd: VSR on cantilever, fit of equation (2); for maximum stress data, Mean / Mean difference of stress, VSR versus VRR: 4 chips; for maximum stress data, Mean: one-way ANOVA table S5; for mechanical response, free end deflection: Van 1000 μM against VSR; for mechanical force (F = kΔz): against VSR on the cantilever, Fig. 6b (10 μM); for Mean difference of stress, VSR versus VRR: independent samples t-test, table S6
Excerpt: To probe different pathways of signal-transduction central to the efficacy of recognition mechanisms and therapeutic agents, we used cantilever force-based technology. Because of its nanometre strain sensitivity, this technology can directly measure the smallest changes in mechanical strain caused by specific antibiotic binding. The principles of force transduction and measurements are well established[18][19][20] and many studies focused on cantilever sensors have been published. Unlike conventional methods such as 1H–NMR spectroscopy, enzyme-linked immunosorbent assays (ELISA)[29] or surface plasmon resonance (SPR)[30] which measure optical signatures of chemical binding, cantilever technology has the capacity to resolve forces at the level of individual hydrogen bonds, making it uniquely suited to provide important insight into force transduction mechanisms, such as cell wall strain in response to antibiotic binding. Moreover, in contrast to direct current or low-frequency signals, which cannot probe beyond electrical double layers formed by screening salts, mechanical signaling is sensitive to ligands even when they are located at distance of ~1 nm or more from the sensor surface (Fig. 1d). Measurements were performed using cantilevers functionalized with self-assembled monolayers (SAM) of VSR, VRR or reference polyethylene glycol (PEG) (see methods & materials, Supplementary Information). The specificity of mechanical signaling was achieved by performing measurements in differential mode, where the bending response of the reference PEG-coated cantilevers, (known to reduce nonspecific drug adsorption[8][14][34]) was subtracted from VSR- and VRR-coated cantilever signals (see cantilever measurement procedure, method section).
Thus far, we have discussed the impact of near-membrane layer on the association kinetics, mechanical force transduction, specificity of molecular recognition and microbial susceptibility. To gain mechanistic insight (Fig. 7a,b), we averaged measurements for each drug-target interaction over four separate chips and the results are summarized in Fig. 7c,d. […] The mechanical signaling response follows an s-shaped curve undergoing its steepest rise at N ~1/Ksurf before reaching a plateau when the binding sites are fully occupied (Fig. 7c,d). To calculate Ksurf, we used equation (2)[14], based on the conventional Hill adsorption model.
Here, Ksurf is raised to the power n to ensure that it maintains the dimension of concentration as n varies. Setting n = 1 yields the Langmuir isotherm where the reactions occur independently, while n > 1 corresponds to positive co-operative polyvalent interactions and n < 1 is a measure of negative co-operativity. In Fig. 7c,d, we find that the mechanical response at VSR levels off at 50 μM concentration for all antibiotics. In contrast, for the drug-resistant VRR a concentration of more than 1000 μM of Van, Rist or CE was required to reach indistinguishable maximum signals. The outcome of the fit using three parameters (n, Ksurf and σmax) is summarized in Supplementary Fig. 2. The calculated Ksurf for Ori binding to VSR is 40 ± 10 nM, which is 25 times stronger than for Van where Ksurf is 1.0 ± 0.3 μM. The Ksurf of Ori against VRR is 70 ± 10 nM, an astonishing 11,000 times stronger than for Van where Ksurf is 800 ± 300 μM. As a further measurement control and to confirm the accuracy of surface binding affinity, we used a commercially available SPR method (Fig. 7e,f and Supplementary SPR sensor chip functionalization procedure), where the detection of ligands is at a single planar metal surface.
The modified cantilever chip was mounted in a sealed liquid cell. The alignment of each light source onto the free end of each cantilever was confirmed by heating liquid chamber to 1 °C rise. […]

[2] = tested on: vancomycin susceptible E. faecalis (VSE); conditions: absence of polysorbate-80; ref. 9 (Van, CE, Ori), ref. 10 (Rist), supplementary references; cited from earlier work
VSR (Ac-VSR) in solution = conditions: cited from earlier work
[3] = tested on: methicillin-susceptible Staphylococcus aureus (MSSA) ATCC 29213; assay: MIC by broth microdilution (CLSI M07-A8), with PS80; format: cell-based
Description: Determination of MIC values to methicillin-susceptible Staphylococcus aureus (MSSA).
Minimum Inhibitory Concentration (MIC) is defined as the lowest concentration of antibacterial agent required to inhibit growth of a microorganism after incubation. The antibiotics vancomycin (Van) and ristomycin (Rist) were obtained from Sigma-Aldrich while chloroeremomycin (CE) and oritavancin (Ori) were obtained from the Medicine Company Inc., U.S.A. To prepare antibiotic stock solutions for MICs assay, 5 mg/ml of each drug was dissolved in water containing an appropriate volume of 0.002% polysorbate-80 or PS80 obtained from Sigma-Aldrich which corresponds to 20 µM to eliminate nonspecific interactions of drugs to surfaces particularly for Ori which is known to bind to glass and plastics13. Microbiological broth with PS80 maintained at 20 µM was used in the drug dilution steps until the required final (assay) concentration. Diluted concentrations of each drug were assayed by adding an inoculum of methicillin-susceptible Staphylococcus aureus (MSSA) ATCC 29213 cells and the MIC determined by broth microdilution according to Clinical Laboratory Standards Institute (CLSI) methodology M07-A8 (CLSI 2009a)14. The results as shown in Supplementary Table S2 for each antibiotic against clinical isolate of MSSA ATCC 29213 strains conducted in the presence of […]
PS80 are within the quality control ranges defined in the guideline15. […]

[4] = pH 7.4 sodium phosphate buffer, read-out: Ksurf Cantilever (surface equilibrium dissociation constant)
[5] = VSR in solution, ref. 1 (Van, Rist), ref. 7 (CE), ref. 2 (Ori), supplementary references, read-out: Ksurf Solution
[6] = solution, read-out: binding affinity against Ac-VSR
[7] = MSSA ATCC 29213, with PS80, converted from mg/l

In the case of `CN[C@H](CC(C)C)C(=O)N[C@H]1C(=O)N[C@@H](CC(N)=O)C(=O)N[C@H]2C(=O)N[C@H]3C(=O)N[C@H](C(=O)N[C@H](C(=O)O)c4cc(O)cc(O)c4-c4cc3ccc4O)[C@H](O)c3ccc(c(Cl)c3)Oc3cc2cc(c3O[C@@H]2O[C@H](CO)[C@@H](O)[C@H](O)[C@H]2O[C@H]2C[C@](C)(N)[C@H](O)[C@H](C)O2)Oc2ccc(cc2Cl)[C@H]1O` [Van, vancomycin], the “mechanical response (in words)” value [1] is reported as “reduced overall stress transduction”, the Kd [1, 4] is reported as 1000 ± 300 nM and the “maximum stress data, Mean” value ([1]; VSR) is reported as 33.5. For the same compound, the “mechanical response, free end deflection” value ([1]; near-membrane layer thickness ~1 nm) was ~ 220 nm, the “mechanical response, free end deflection” value ([1]; near-membrane layer thickness ~50 nm) was ~ 150 nm and the “mechanical force (F = kΔz)” value [1] was ~ 3 nN. For the same compound, the “Mean difference of stress, VSR versus VRR” value [1] was 26.1, the “MIC VSE” value [2] was 0.5 to 4 mg/L and the Kd (VSR (Ac-VSR) in solution; [5]) was 1000 nM. The Kd (VSR (Ac-VSR) in solution; [6]) was about 1000 nM, the MIC [3, 7] was 0.67 µM (≈ 0.971 µg/mL) and the MIC ([3]; Staphylococcus aureus) was 1 µg/mL and 0.67 µM.
In the case of `CN[C@H](CC(C)C)C(=O)N[C@H]1C(=O)N[C@@H](CC(N)=O)C(=O)N[C@H]2C(=O)N[C@H]3C(=O)N[C@H](C(=O)N[C@H](C(=O)O)c4cc(O)cc(O)c4-c4cc3ccc4O)[C@H](O[C@H]3C[C@](C)(N)[C@@H](O)[C@H](C)O3)c3ccc(c(Cl)c3)Oc3cc2cc(c3O[C@@H]2O[C@H](CO)[C@@H](O)[C@H](O)[C@H]2O[C@H]2C[C@](C)(NCc3ccc(-c4ccc(Cl)cc4)cc3)[C@@H](O)[C@H](C)O2)Oc2ccc(cc2Cl)[C@H]1O` [Ori, oritavancin], the “mechanical response (in words)” value [1] is reported as “significantly large mechanical response”, the Kd [1, 4] is reported as 40 ± 10 nM and the Kd ([1]; read-out: Ksurf (cantilever)) is reported as 40 ± 10 nM. The “maximum stress data, Mean” value ([1]; VSR) was 33.8, the “mechanical force (F = kΔz)” value [1] was ~ 3.6 nN and the “Mean difference of stress, VSR versus VRR” value [1] was 13.2. For the same compound, the “Ksurf of Ori against VSR, times stronger than for Van” value ([1]; ratio of cantilever Ksurf, VSR) was 25 times, the “MIC VSE” value [2] was 0.25 to 2 mg/L and the Kd (VSR (Ac-VSR) in solution; [5]) was 3800 nM. For the same compound, the Kd (VSR (Ac-VSR) in solution; [6]) was about 1000 nM, the MIC [3, 7] was 0.03 µM (≈ 0.0538 µg/mL) and the MIC ([3]; Staphylococcus aureus) was 0.06 µg/mL and 0.03 µM.
